According to US20180035670A1, “ACTIVE COMPOUND COMBINATIONS” (BAYER CROPSCIENCE AKTIENGESELLSCHAFT, priority 2015, published 2018):
Where “and” joins values, the source holds several entries; their conditions need not be identical. Equal values may be shown once. Read-outs that look alike come from different tables or passages of the source.

Key:
Phakopsora pachyrhizi = experiment: in vivo preventive test on Phakopsora test (soybeans); settings: 7 days after inoculation; for pest or weed control at 0.5 ppm: 0.5 ppm a.i.; for pest or weed control at 1 ppm: 1 ppm a.i.; for pest or weed control at 0.25 ppm: 0.25 ppm a.i.
Venturia inaequalis = experiment: in vivo preventive test on Venturia test (apples); settings: for pest or weed control at 0.25 ppm: read-out: Efficacy in % found, 0.25 ppm a.i., apples, 10 days after inoculation; for pest or weed control at 0.5 ppm: read-out: Efficacy in % found, 0.5 ppm a.i., apples, 10 days after inoculation; for pest or weed control at 1 ppm: read-out: Efficacy in % found, 1 ppm a.i., apples, 10 days after inoculation; for pest or weed control at 10 ppm: read-out: Efficacy in % found, 10 ppm a.i., apples, 10 days after inoculation; for pest or weed control at 2 ppm: read-out: Efficacy in % found, 2 ppm a.i., apples, 10 days after inoculation; for Efficacy in % found: apples, 10 days after inoculation
Method: After the spray coating has dried on, the plants are inoculated with an aqueous conidia suspension of the causal agent of apple scab (Venturia inaequalis) and then remain for 1 day in an incubation cabinet at approximately 20° C. and a relative atmospheric humidity of 100%. The plants are then placed in a greenhouse at approximately 21° C. and a relative atmospheric humidity of approximately 90%.
The test is evaluated 10 days after the inoculation.

Alternaria solani = experiment: in vivo preventive test on Alternaria test (tomatoes); settings: 3 days after inoculation
Method: After the spray coating has dried on, the plants are inoculated with an aqueous spore suspension of Alternaria solani. The plants are then placed in an incubation cabinet at approximately 20° C. and a relative atmospheric humidity of 100%.
The test is evaluated 3 days after the inoculation.

Sphaerotheca fuliginea = experiment: in vivo preventive test on Sphaerotheca test (cucumbers); settings: 7 days after inoculation
Method: After the spray coating has dried on, the plants are inoculated with an aqueous spore suspension of Sphaerotheca fuliginea. The plants are then placed in a greenhouse at approximately 23° C. and a relative atmospheric humidity of approximately 70%.
The test is evaluated 7 days after the inoculation.

Botrytis cinerea = experiment: in vivo preventive test on Botrytis test (beans); settings: 2 days after inoculation
Method: After the spray coating has dried on, 2 small pieces of agar covered with growth of Botrytis cinerea are placed on each leaf.
The inoculated plants are placed in a darkened chamber at 20° C. and a relative atmospheric humidity of 100%.
2 days after the inoculation, the size of the lesions on the leaves is evaluated.

Phytophthora infestans = format: in vivo; settings: tomatoes, 3 days after inoculation
[1] = Phakopsora pachyrhizi, 168 h, read-out: Efficacy in % found

Row | Molecule | pest or weed control at 0.5 ppm (Phakopsora pachyrhizi; [1]) | pest or weed control at 1 ppm (Phakopsora pachyrhizi; [1]) | pest or weed control at 0.25 ppm (Venturia inaequalis; Venturia inaequalis, 240 h) | pest or weed control at 0.5 ppm (Venturia inaequalis; Venturia inaequalis, 240 h) | Efficacy in % found (Alternaria solani; 0.25 ppm a.i.) | Efficacy in % found (Alternaria solani; 0.5 ppm a.i.) | Efficacy in % found (Alternaria solani; 1 ppm a.i.) | pest or weed control at 0.25 ppm (Phakopsora pachyrhizi; [1]) | Efficacy in % found (Botrytis cinerea; 0.5 ppm a.i.) | Efficacy in % found (Botrytis cinerea; 1 ppm a.i.) | Efficacy in % found (Phytophthora infestans; 10 ppm a.i.) | Efficacy in % found (Phytophthora infestans; 20 ppm a.i.) | Efficacy in % found (Botrytis cinerea; 0.25 ppm a.i.) | Efficacy in % found (Alternaria solani; 2 ppm a.i.) | further results
1 | CC(O)(Cn1cncn1)c1ccc(Oc2ccc(Cl)cc2)cc1C(F)(F)F (centres unmarked) [1.084, 2-[4-(4-chlorophenoxy)-2-(trifluoromethyl)phenyl]-1-(1H-1,2,4-triazol-1-yl)propan-2-ol] | 8% | 0% | 11% | 34% | 8% | 8% and 0% | 15% |  |  |  |  |  |  |  | pest or weed control at 1 ppm (Venturia inaequalis; Venturia inaequalis, 240 h): 31%; Efficacy in % found (Sphaerotheca fuliginea; 0.5 ppm a.i.): 0%
2 | O[C@@H](c1cccnc1)c1c(-c2ccc(Cl)cc2F)noc1-c1ccc(F)cc1F [1.104, (S)-[3-(4-chloro-2-fluorophenyl)-5-(2,4-difluorophenyl)-1,2-oxazol-4-yl](pyridin-3-yl)methanol] |  | 0% | 0% | 11% | 0% | 0% | 0% | 0% | 15% | 26% |  |  |  |  | pest or weed control at 1 ppm (Venturia inaequalis; Venturia inaequalis, 240 h): 19%; Efficacy in % found (Sphaerotheca fuliginea; 0.25 ppm a.i.): 0%; Efficacy in % found (Sphaerotheca fuliginea; 1 ppm a.i.): 0%
3 | COC(=O)Nc1nc2ccccc2[nH]1 [4.002, carbendazim, reference compound] |  |  |  |  |  |  |  |  |  |  |  |  |  |  | pest or weed control at 1.25 ppm (Phakopsora pachyrhizi; Phakopsora pachyrhizi, 168 h, 1.25 ppm a.i., read-out: Efficacy in % found): 0%; pest or weed control at 2.5 ppm (Phakopsora pachyrhizi; Phakopsora pachyrhizi, 168 h, 2.5 ppm a.i., read-out: Efficacy in % found): 0%; Efficacy in % found (Botrytis cinerea; 5 ppm a.i.): 0%; pest or weed control at 5 ppm (Venturia inaequalis; Venturia inaequalis, 240 h, read-out: Efficacy in % found, 5 ppm a.i., apples, 10 days after inoculation): 8%; pest or weed control at 10 ppm (Venturia inaequalis; Venturia inaequalis, 240 h): 21%; Efficacy in % found (Alternaria solani; 10 ppm a.i.): 0%
4 | N#Cc1c(Cl)c(Cl)c(Cl)c(C#N)c1Cl [5.004, chlorothalonil, reference compound] |  |  |  |  |  |  |  |  |  |  |  |  |  |  | pest or weed control at 6.25 ppm (Phakopsora pachyrhizi; Phakopsora pachyrhizi, 168 h, 6.25 ppm a.i., read-out: Efficacy in % found): 18%; pest or weed control at 12.5 ppm (Phakopsora pachyrhizi; Phakopsora pachyrhizi, 168 h, 12.5 ppm a.i., read-out: Efficacy in % found): 0%; pest or weed control at 25 ppm (Venturia inaequalis; Venturia inaequalis, 240 h, read-out: Efficacy in % found, 25 ppm a.i., apples, 10 days after inoculation): 36%; Efficacy in % found (Alternaria solani; 50 ppm a.i.): 0%
5 | O=[N+]([O-])c1cc(C(F)(F)F)c(Cl)c([N+](=O)[O-])c1Nc1ncc(C(F)(F)F)cc1Cl [14.004, fluazinam, reference compound] |  |  |  |  |  |  |  |  |  |  | 45% | 28% |  |  | pest or weed control at 5 ppm (Phakopsora pachyrhizi; Phakopsora pachyrhizi, 168 h, 5 ppm a.i., read-out: Efficacy in % found): 0%; Efficacy in % found (Botrytis cinerea; 5 ppm a.i.): 63%; pest or weed control at 10 ppm (Venturia inaequalis; Venturia inaequalis, 240 h): 0%; Efficacy in % found (Alternaria solani; 10 ppm a.i.): 0%
6 | CC1(C)N=C(c2cnc3ccccc3c2)c2ccccc2C1(F)F [15.090, 3-(4,4-difluoro-3,3-dimethyl-3,4-dihydroisoquinolin-1-yl)quinoline] | 0% | 0% | 19% |  |  |  |  | 0% | 0% | 28% |  |  | 0% |  | 
7 | CCC1CC(C)(C)c2cccc(NC(=O)c3cccnc3C(F)F)c21 (centres unmarked) [(I-3), 2-(difluoromethyl)-N-(3-ethyl-1,1-dimethyl-2,3-dihydro-1H-inden-4-yl)nicotinamide] | 65% | 84% | 4% | 18% | 15% | 23% | 40% |  |  | 15% |  | 4% |  | 35% | Efficacy in % found (Phytophthora infestans; 5 ppm a.i.): 28%; Efficacy in % found (Botrytis cinerea; 2 ppm a.i.): 23%; pest or weed control at 2 ppm (Venturia inaequalis; Venturia inaequalis, 240 h): 11%; Efficacy in % found (Sphaerotheca fuliginea; 0.5 ppm a.i.): 0%; Efficacy in % found (Sphaerotheca fuliginea; 1 ppm a.i.): 0%
8 | CC[C@@H]1CC(C)(C)c2cccc(NC(=O)c3cccnc3C(F)F)c21 [(I-4), 2-(difluoromethyl)-N-[(3R)-3-ethyl-1,1-dimethyl-2,3-dihydro-1H-inden-4-yl]nicotinamide] | 85% |  | 15% |  | 8% | 40% | 30% and 55% | 65% | 8% |  | 10% | 7% | 0% | 35% | 
9 | CCCC1CC(C)(C)c2cccc(NC(=O)c3cccnc3C(F)F)c21 (centres unmarked) [(I-5), 2-(difluoromethyl)-N-(1,1-dimethyl-3-propyl-2,3-dihydro-1H-inden-4-yl)nicotinamide] |  |  | 8% | 0% |  |  | 0% | 60% | 0% |  | 0% | 4% | 0% | 8% | Efficacy in % found (Phytophthora infestans; 5 ppm a.i.): 17%; pest or weed control at 2 ppm (Venturia inaequalis; Venturia inaequalis, 240 h): 0%
10 | CCC[C@@H]1CC(C)(C)c2cccc(NC(=O)c3cccnc3C(F)F)c21 [(I-6), 2-(difluoromethyl)-N-[(3R)-1,1-dimethyl-3-propyl-2,3-dihydro-1H-inden-4-yl]nicotinamide] |  |  |  | 0% | 0% | 0% | 8% and 15% | 75% | 0% | 19% and 11% | 14% | 8% | 15% | 51% | Efficacy in % found (Phytophthora infestans; 5 ppm a.i.): 21%; pest or weed control at 2 ppm (Venturia inaequalis; Venturia inaequalis, 240 h): 15%
11 | mancozeb [5.023, reference compound] |  |  |  |  |  |  |  |  |  |  |  |  |  |  | Efficacy in % found (Phakopsora pachyrhizi; 6.25 ppm a.i.): 24%; Efficacy in % found (Phakopsora pachyrhizi; 12.5 ppm a.i.): 41%; Efficacy in % found (Botrytis cinerea; 25 ppm a.i.): 0%; Efficacy in % found (Botrytis cinerea; 50 ppm a.i.): 0%; Efficacy in % found (Venturia inaequalis; 25 ppm a.i.): 31%; Efficacy in % found (Venturia inaequalis; 50 ppm a.i.): 34%; Efficacy in % found (Alternaria solani; 50 ppm a.i.): 0%
12 | propineb [5.029, reference compound] |  |  |  |  |  |  |  |  |  |  |  |  |  |  | Efficacy in % found (Phakopsora pachyrhizi; 6.25 ppm a.i.): 0%; Efficacy in % found (Phakopsora pachyrhizi; 12.5 ppm a.i.): 0%; Efficacy in % found (Botrytis cinerea; 25 ppm a.i.): 0%; Efficacy in % found (Venturia inaequalis; 12.5 ppm a.i.): 11%; Efficacy in % found (Venturia inaequalis; 25 ppm a.i.): 94%; Efficacy in % found (Alternaria solani; 50 ppm a.i.): 0%
